Data published in patent USRE50083E1, “URAT1 inhibitor and use thereof” (Jiangsu Atom Bioscience and Pharmaceutical Co., Ltd., priority 2016, dated 2024).
Read-outs that look alike come from different tables or passages of the source.

Target: T1, hURAT1 (Homo sapiens, UniProt Q96S37)
T1 sequence (Q96S37 1-553): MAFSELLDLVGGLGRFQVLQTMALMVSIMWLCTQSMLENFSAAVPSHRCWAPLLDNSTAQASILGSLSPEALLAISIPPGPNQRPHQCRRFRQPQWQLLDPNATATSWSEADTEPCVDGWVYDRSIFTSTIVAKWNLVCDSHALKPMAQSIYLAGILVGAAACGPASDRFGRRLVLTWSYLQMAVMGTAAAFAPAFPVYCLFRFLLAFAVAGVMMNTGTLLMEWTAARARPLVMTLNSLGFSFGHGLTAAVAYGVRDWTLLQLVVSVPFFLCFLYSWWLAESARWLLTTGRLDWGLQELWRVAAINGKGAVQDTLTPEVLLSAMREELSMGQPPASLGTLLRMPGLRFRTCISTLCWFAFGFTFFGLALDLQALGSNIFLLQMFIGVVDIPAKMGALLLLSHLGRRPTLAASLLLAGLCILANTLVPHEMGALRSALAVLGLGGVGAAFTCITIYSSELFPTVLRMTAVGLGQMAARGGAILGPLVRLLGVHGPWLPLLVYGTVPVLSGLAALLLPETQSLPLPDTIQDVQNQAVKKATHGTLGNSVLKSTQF
Experiment: Inhibition assay of uric acid transport in HEK293-hURAT1 transfection cell line (14C-uric acid uptake)
Type: cell-based
Conditions: for inhibition at 0.5 µM: read-out: Inhibitory rates of uric acid transport, ±SD (%); for inhibitory effect on uric acid transport (in words): 500 nM, in comparison with the control drug benzbromarone
Experimental: 1. Construction of a HEK293 Cell Line with High Expression of hURAT1:
The plasmid pCMV6-hURAT1 was transfected into HEK293 cells, and then the stable strain was obtained by the G418 (final concentration of 500 μg/mL) resistance screening, which is the high expression of hURAT1 transporter membrane protein. […] The HEK293 cells are the human embryonic kidney cells with high transfection efficiency, and are a very commonly used engineering cell line for expressing exogenous genes.
2. To a coated 24-well plate was added 200 μl of 0.1 mg/mL poly-lysine per well and the plate was left overnight. Poly-lysine was removed from wells. The wells were cleaned thoroughly with sterile water and dried for use.
3. To the above coated 24-well plate was added HEK293-hURAT1 stable cells (2×10^5 cells per well). The cells were cultured at 37° C. under 5% CO2 for 3 days.
4. […] The solution was fully mixed to give HBSS (pH value: 7.4). The buffer was stored at −20° C.
5. The HBSS buffer was warmed to 37° C. in a water bath. Taken out the 24-well plate with HEK293-hURAT1 stable cells, removed the culture medium and washed cells with HBSS, then added 160 μL of HBSS and 20 μL test compound per well. The final concentration of tested compound per well is 500 nM. The blank control well contains only 180 μL of HBSS without tested compound. The plate was placed at room temperature for 10 min.
6. To each well was added 20 μL of 50 μM ^14C-Uric acid. The 24-well plate was placed at room temperature for 20 min.
7. The solution in each well was removed and the cells were washed with the pre-cooled HBSS buffer. To each well was added 0.2 M NaOH to dissolve the cells. The solution containing cell fragments was collected and the right amount of scintillation liquid was added.
8. The formula for calculating the inhibitory rate of uric acid transport for compounds was shown as below (Table 1), the CPM value of the tested compounds was represented by CPM(tested compound) and the CPM value of the blank control was represented by CPM(blank control).

[1] = 500 nM compound concentration, HEK293-hURAT1 transfection cell line, 14C-uric acid, mean of three tests ± SD
[2] = HEK293-hURAT1 transfection cell line

Compound | inhibition at 0.5 µM [%] | inhibition at 0.5 µM [1] [%] | inhibitory effect on uric acid transport (in words) [2]
CCc1oc2ccccc2c1C(=O)c1cc(Br)c(O)c(Br)c1 [Benzbromarone, (3,5-dibromo-4-hydroxy-'phenyl)(2-ethylbenzofuran-3-yl)-methanone, reference compound] | 54.8 ± 5.12 | – | –
CCc1nc2ncccn2c1C(=O)c1cc(Br)c(O)c(Br)c1 [Compound 4, (3,5-dibromo-4-hydroxyphenyl)(2-ethylimidazo[1,2-a]-pyrimidine-3-yl)methanone] | – | 50 ± 5.38 | –
CCc1nc2sccn2c1C(=O)c1cc(Br)c(O)c(Br)c1 [Compound 8, (3,5-dibromo-4-hydroxyphenyl)(6-ethylimidazo[2,1-b]-thiazole-5-yl)methanone] | – | 55.2 ± 3.94 | very good inhibitory effects
CCc1nc2cnccn2c1C(=O)c1cc(Br)c(O)c(Br)c1 [Compound 12, (3,5-dibromo-4-hydroxyphenyl)(2-ethylimidazo[1,2-a]-pyrazine-3-yl)methanone] | – | 51.31 ± 0.16 | very good inhibitory effects
CCc1nc2ccccn2c1C(O)c1cc(Br)c(O)c(C#N)c1 (stereo not shown) [Compound 20, 3-bromo-5-[(2-ethylimidazo[1,2-a]pyridine-3-yl)-hydroxymethyl]-2-hydroxybenzonitrile] | – | 62.1 ± 1.26 | very good inhibitory effects
CCc1nc2ccccn2c1C(O)c1ccc(O)c(C#N)c1 (stereo not shown) [Compound 21, 5-[(2-ethylimidazo[1,2-a]pyridine-3-yl)hydroxymethyl]-2-hydroxybenzonitrile] | – | 33 ± 7.33 | –
CCc1nc2sccn2c1C(O)c1cc(Br)c(O)c(Br)c1 (stereo not shown) [Compound 22, 2,6-dibromo-4-[(6-ethylimidazo[2,1-b]thiazole-5-yl)-hydroxymethyl]phenol] | – | 48.2 ± 3.86 | –
CCc1nc2cnccn2c1C(O)c1cc(Br)c(O)c(Br)c1 (stereo not shown) [Compound 23, 2,6-dibromo-4-[(2-ethylimidazo[1,2-a]pyrazine-3-yl)-hydroxymethyl]phenol] | – | 50.2 ± 1.02 | very good inhibitory effects
CCc1nc2ccc(F)cn2c1C(O)c1cc(F)c(O)c(Br)c1 (stereo not shown) [Compound 28, 2-bromo-4-[(2-ethyl-6-fluoroimidazo[1,2-a]pyridine-3-yl)hydroxymethyl]-6-fluorophenol] | – | 41.2 ± 1.92 | –
CCc1nn2ccccc2c1C(O)c1cc(Br)c(O)c(Br)c1 (stereo not shown) [Compound 35, 2,6-dibromo-4-[(2-ethylpyrazolo[1,5-a]pyridine-3-yl)-hydroxymethyl]phenol] | – | 36.3 ± 1.79 | –
CCc1nc2ccc(Br)cn2c1C(O)c1cc(Br)c(O)c(Br)c1 (stereo not shown) [Compound 40, 2,6-dibromo-4-[(6-bromo-2-ethylimidazo[1,2-a]-pyridine-3-yl)hydroxymethyl]phenol] | – | 51.7 ± 2.43 | very good inhibitory effects
CCc1nc2cc(C(F)(F)F)ccn2c1C(O)c1cc(Br)c(O)c(Br)c1 (stereo not shown) [Compound 41, 2,6-dibromo-4-{[2-ethyl-7-(trifluoromethyl)-imidazo[1,2-a]pyridine-3-yl]hydroxymethyl}phenol] | – | 37.4 ± 5.52 | –
CCc1oc2ccccc2c1C(O)c1cc(Br)c(O)c(Br)c1 (stereo not shown) [Compound 42, 2,6-dibromo-4-[(2-ethylbenzofuran-3-yl)-hydroxymethyl]phenol] | 37.4 ± 2.36 | – | –
CCc1nc2scnn2c1C(=O)c1cc(Br)c(O)c(Br)c1 [Compound 49, (3,5-dibromo-4-hydroxyphenyl)(6-ethylimidazo-[2,1-b][1,3,4]thiadiazole-5-yl)methanone] | – | 31.91 ± 0.23 | –
CCc1nc2ccccn2c1C(O)c1cc(C)c(O)c(Br)c1 (stereo not shown) [Compound 54, 2-bromo-4-(2-ethylimidazo[1,2-a]pyridine-3-yl)-hydroxymethyl-6-methylphenol] | – | 42.9 ± 3.44 | –
CCc1oc2ccccc2c1C(OC)c1cc(Br)c(O)c(Br)c1 (stereo not shown) [Compound 58, 2,6-dibromo-4-[(2-ethylbenzofuran-3-yl)(methoxy)-methyl]phenol] | – | 48.7 ± 5.61 | –
CCc1nc2cc(OC)ccn2c1C(O)c1cc(Br)c(O)c(Br)c1 (stereo not shown) [Compound 64, 2,6-dibromo-4-{(2-ethyl-7-methoxyimidazo[1,2-a]-pyridine-3-yl)hydroxymethyl}phenol] | – | 39.9 ± 5.34 | –
